Structures are written as SMILES. Activity calls are given as the source filed them. The rule behind the calls is not given here.

This data set has as its system CCRIS mutagenicity, Ames/micronucleus/aberration tests. The data set is described as follows: CCRIS mutagenicity studies.
[1] abbreviates: Test System: AMES SALMONELLA TYPHIMURIUM, Strain/Indicator: TA1535, Metabolic Activation: NONE, Method: PREINCUBATION
The mark [2] stands for this setting: Test System: AMES SALMONELLA TYPHIMURIUM, Strain/Indicator: TA98, Metabolic Activation: NONE, Method: PREINCUBATION
[3] abbreviates: Test System: AMES SALMONELLA TYPHIMURIUM, Strain/Indicator: TA100, Metabolic Activation: NONE, Method: PREINCUBATION
Where [4] appears, read: Test System: AMES SALMONELLA TYPHIMURIUM, Strain/Indicator: TA100, Metabolic Activation: RAT, LIVER, S-9, AROCLOR 1254, Method: PREINCUBATION

Consider `CCCCN(CCCC(=O)O)N=O`, for which the mutagenic call reads like this: (End Point: IN VITRO MICRONUCLEUS, Test System: CHL/IU CELLS, Metabolic Activation: NONE) “active; positive”; (Test System: AMES SALMONELLA TYPHIMURIUM, Strain/Indicator: TA100, Metabolic Activation: BOVINE, URINARY BLADDER, S-9, Method: PREINCUBATION) “inactive; negative”; (Test System: AMES SALMONELLA TYPHIMURIUM, Strain/Indicator: TA100, Metabolic Activation: PIG, URINARY BLADDER, S-9, Method: PREINCUBATION) “inactive; negative”; (Test System: AMES SALMONELLA TYPHIMURIUM, Strain/Indicator: TA100, Metabolic Activation: RAT, LIVER, MICROSOMES, SODIUM PHENOBARBITONE, Method: PREINCUBATION) “inactive; negative”; (Test System: AMES SALMONELLA TYPHIMURIUM, Strain/Indicator: TA100, Metabolic Activation: RAT, LIVER, S-9, AROCLOR, Method: PREINCUBATION) “inactive; negative”; under setting [1], “inactive; negative”. In addition, the mutagenic call by setting is: (Test System: AMES SALMONELLA TYPHIMURIUM, Strain/Indicator: TA1535, Metabolic Activation: RAT, LIVER, MICROSOMES, SODIUM PHENOBARBITONE, Method: PREINCUBATION) “inactive; negative”; (Test System: AMES SALMONELLA TYPHIMURIUM, Strain/Indicator: TA1535, Metabolic Activation: RAT, LIVER, S-9, AROCLOR, Method: PREINCUBATION) “inactive; negative”; (Test System: AMES SALMONELLA TYPHIMURIUM, Strain/Indicator: TA1535, Metabolic Activation: RAT, LIVER, S-9, KC500 OR PHENOBARBITAL, Method: LIQUID SUSPENSION) “active; positive”.
As to `CC(C(=O)O)c1ccc2c(c1)[nH]c1ccc(Cl)cc12` (stereo not given), the mutagenic call runs as follows: (Test System: AMES SALMONELLA TYPHIMURIUM, Strain/Indicator: TA98, Metabolic Activation: RAT, LIVER, S-9, PCB, Method: STANDARD PLATE) “inactive; negative”; (Test System: AMES SALMONELLA TYPHIMURIUM, Strain/Indicator: TA100, Metabolic Activation: RAT, LIVER, S-9, PCB, Method: STANDARD PLATE) “inactive; negative”; (Test System: AMES SALMONELLA TYPHIMURIUM, Strain/Indicator: TA1537, Metabolic Activation: RAT, LIVER, S-9, PCB, Method: STANDARD PLATE) “inactive; negative”; (Test System: AMES SALMONELLA TYPHIMURIUM, Strain/Indicator: TA1538, Metabolic Activation: RAT, LIVER, S-9, PCB, Method: STANDARD PLATE) “inactive; negative”; (Test System: E. COLI, Strain/Indicator: WP2 UVRA, Metabolic Activation: RAT, LIVER, S-9, PCB, Method: STANDARD PLATE) “inactive; negative”.
Take `CC(=O)OCc1cccc([N+](=O)[O-])c1`: the mutagenic call was “inactive; negative” under setting [2], “inactive; negative” under setting [3] and “inactive; negative” under setting [4].
Regarding `NC(=O)c1ccccc1`, the mutagenic call is, setting by setting: (Test System: AMES SALMONELLA TYPHIMURIUM, Strain/Indicator: TA97, Metabolic Activation: HAMSTER, LIVER, S-9, AROCLOR 1254 (10 OR 30%), Method: PREINCUBATION) “inactive; negative”; (Test System: AMES SALMONELLA TYPHIMURIUM, Strain/Indicator: TA97, Metabolic Activation: NONE, Method: PREINCUBATION) “inactive; negative”; (Test System: AMES SALMONELLA TYPHIMURIUM, Strain/Indicator: TA97, Metabolic Activation: RAT, LIVER, S-9, AROCLOR 1254 (10 OR 30%), Method: PREINCUBATION) “inactive; negative”; (Test System: AMES SALMONELLA TYPHIMURIUM, Strain/Indicator: TA98, Metabolic Activation: HAMSTER, LIVER, S-9, AROCLOR 1254 (10 OR 30%), Method: PREINCUBATION) “inactive; negative”; under setting [2], “inactive; negative”; (Test System: AMES SALMONELLA TYPHIMURIUM, Strain/Indicator: TA98, Metabolic Activation: RAT, LIVER, S-9, AROCLOR 1254 (10 OR 30%), Method: PREINCUBATION) “inactive; negative”. The mutagenic call runs as follows: (Test System: AMES SALMONELLA TYPHIMURIUM, Strain/Indicator: TA100, Metabolic Activation: HAMSTER, LIVER, S-9, AROCLOR 1254 (10 OR 30%), Method: PREINCUBATION) “inactive; negative”; under setting [3], “inactive; negative”; (Test System: AMES SALMONELLA TYPHIMURIUM, Strain/Indicator: TA100, Metabolic Activation: RAT, LIVER, S-9, AROCLOR 1254 (10 OR 30%), Method: PREINCUBATION) “inactive; negative”; (Test System: AMES SALMONELLA TYPHIMURIUM, Strain/Indicator: TA1535, Metabolic Activation: HAMSTER, LIVER, S-9, AROCLOR 1254 (10 OR 30%), Method: PREINCUBATION) “inactive; negative”; under setting [1], “inactive; negative”; (Test System: AMES SALMONELLA TYPHIMURIUM, Strain/Indicator: TA1535, Metabolic Activation: RAT, LIVER, S-9, AROCLOR 1254 (10 OR 30%), Method: PREINCUBATION) “inactive; negative”.
In the case of `N#Cc1c(Cl)c(Cl)c(Cl)c(C#N)c1Cl`, the mutagenic call (End Point: IN VITRO CHROMOSOMAL ABERRATIONS, Test System: CHINESE HAMSTER OVARY CELLS, Metabolic Activation: NONE) was “active; positive” and the mutagenic call (End Point: IN VITRO CHROMOSOMAL ABERRATIONS, Test System: CHINESE HAMSTER OVARY CELLS, Metabolic Activation: RAT, LIVER, S-9, AROCLOR 1254) was “active; positive”.
Consider `O=[N+]([O-])c1ccccc1O`, for which the mutagenic call was “inactive; negative” (Test System: AMES SALMONELLA TYPHIMURIUM, Strain/Indicator: TA98, Metabolic Activation: HAMSTER, LIVER, S-9, AROCLOR 1254, FLAVIN MONONUCLEOTIDE, Method: PREINCUBATION); “inactive; negative” under setting [2]; “inactive; negative” (Test System: AMES SALMONELLA TYPHIMURIUM, Strain/Indicator: TA98, Metabolic Activation: RAT, LIVER, S-9, KANECHLOR 500, Method: PREINCUBATION); “inactive; negative” (Test System: AMES SALMONELLA TYPHIMURIUM, Strain/Indicator: TA98, Method: PREINCUBATION); “inactive; negative” (Test System: AMES SALMONELLA TYPHIMURIUM, Strain/Indicator: TA100, Metabolic Activation: HAMSTER, LIVER, S-9, AROCLOR 1254, FLAVIN MONONUCLEOTIDE, Method: PREINCUBATION); “inactive; negative” under setting [3]. The mutagenic call by setting is: (Test System: AMES SALMONELLA TYPHIMURIUM, Strain/Indicator: TA100, Metabolic Activation: RAT, LIVER, S-9, KANECHLOR 500, Method: PREINCUBATION) “inactive; negative”; (Test System: AMES SALMONELLA TYPHIMURIUM, Strain/Indicator: TA100, Method: PREINCUBATION) “inactive; negative”; under setting [1], “inactive; negative”; (Test System: AMES SALMONELLA TYPHIMURIUM, Strain/Indicator: TA1535, Method: PREINCUBATION) “inactive; negative”; (Test System: AMES SALMONELLA TYPHIMURIUM, Strain/Indicator: TA1537, Metabolic Activation: NONE, Method: PREINCUBATION) “inactive; negative”; (Test System: AMES SALMONELLA TYPHIMURIUM, Strain/Indicator: TA1537, Method: PREINCUBATION) “inactive; negative”. The mutagenic call by setting is: (Test System: AMES SALMONELLA TYPHIMURIUM, Strain/Indicator: TA1538, Metabolic Activation: NONE, Method: PREINCUBATION) “inactive; negative”; (Test System: AMES SALMONELLA TYPHIMURIUM, Strain/Indicator: TA1538, Method: PREINCUBATION) “inactive; negative”.
Turning to `Cn1cnc2c3cccnc3ccc21`, the mutagenic call is “active; positive” under setting [2]; “active; positive” (Test System: AMES SALMONELLA TYPHIMURIUM, Strain/Indicator: TA98, Metabolic Activation: RAT, LIVER, S-9, AROCLOR 1254, Method: PREINCUBATION); “active; positive” under setting [3]; “active; positive” under setting [4].
For the molecule `CCOC(=O)C(=NNc1ccc(-c2ccc(NN=C(C(=O)OCC)C(=O)OCC)c(OC)c2)cc1OC)C(=O)OCC`, the mutagenic call (Test System: AMES SALMONELLA TYPHIMURIUM, Strain/Indicator: TA98, Metabolic Activation: HAMSTER, LIVER, S-9, Method: PREINCUBATION (PRIVAL METHOD)) was “inactive; negative”.

For the origin of these results see PubChem BioAssay AID1259407 (Chemical Carcinogenesis Research Information System (CCRIS), 2018).
